From patent US12390449B2, “Substituted 2-aminobenzimidazoles analogs as antibiofilm agents” (priority 2018, dated 2025)
Structures can show the parent of a compound that is named as a salt. Where two headings read alike, the source gives them in different places.

System: Salmonella typhimurium ATCC14028 Biofilms
Test: Inhibitory effect of test compounds on Salmonella typhimurium ATCC14028 biofilms (crystal violet, 96-well)
Format: cell-based
Conditions: for antibiofilm activity (in words): compared with parent compound 1
Description: Procedure to Determine the Inhibitory Effect of Test Compounds on Salmonella typhimurium ATCC14028 Biofilms: […] Stock solutions of predetermined concentrations of the test compounds were then made in 1 mL of bacterial culture. […] Sample plates were then incubated for 24 h at 30° C. After incubation, the medium was discarded from the wells and the plates were washed thoroughly with water. Plates were then stained with 110 μL of 0.1% solution of crystal violet (CV) and then incubated at ambient temperature for 30 min. Plates were washed with water again and the remaining stain was solubilized with 200 μL of 95% ethanol. A sample of 125 μL of solubilized CV stain from each well was transferred to the corresponding wells of a polystyrene microtiter dish. Biofilm inhibition was quantitated by measuring the OD540 of each well in which a negative control lane wherein no biofilm was formed served as a background and was subtracted out.

[1] = Salmonella enterica, 24 h, read-out: IC50 (μM), inhibition of biofilm formation, S. typhimurium ATCC14028, 24 h at 30° C., crystal violet OD540
[2] = read-out: IC50 (μM), inhibition of biofilm formation, S. typhimurium ATCC14028, 24 h at 30° C., crystal violet OD540
[3] = read-out: IC50 (μM), inhibition of biofilm formation, S. typhimurium ATCC14028, 24 h at 30° C., crystal violet OD540, hydrochloride

SMILES	IC50 [1]	further results
CCCCCc1ccc(C(=O)Nc2ccc3c(c2)nc(N)n3CCCCc2ccccc2)cc1 [Compound 5b, N-(2-Amino-1-(4-phenylbutyl)-1H-benzo[d]imidazol-5-yl)-4-pentylbenzamide hydrochloride]	9.59 ± 0.23 µM	–
CCCCCc1ccc(C(=O)Nc2ccc3c(c2)nc(N)n3CC(C)C)cc1 [Compound 5d, N-(2-Amino-1-isbutyl-1H-benzo[d]imidazol-5-yl)-4-pentylbenzamide hydrochloride]	–	IC50 [2]: 10 to 15 µM
CCCCCc1ccc(C(=O)Nc2ccc3c(c2)nc(N)n3C)cc1.Cl [Compound 5l, N-(2-Amino-1-methyl-1H-benzo[d]imidazol-5-yl)-4-pentylbenzamide hydrochloride]	> 40 µM	antibiofilm activity (in words): reduced or completely abolished antibiofilm activity
CCCCCCCCCCn1c(N)nc2cc(NC(=O)c3ccc(CCCCC)cc3)ccc21.Cl [Compound 5m, N-(2-Amino-1-decyl-1H-benzo[d]imidazol-5-yl)-4-pentylbenzamide hydrochloride]	> 50 µM	antibiofilm activity (in words): reduced or completely abolished antibiofilm activity
CCCCCCCCCCCCn1c(N)nc2cc(NC(=O)c3ccc(CCCCC)cc3)ccc21.Cl [Compound 5n, N-(2-Amino-1-dodecyl-1H-benzo[d]imidazol-5-yl)-4-pentylbenzamide hydrochloride]	> 50 µM	antibiofilm activity (in words): reduced or completely abolished antibiofilm activity
CCCCCc1ccc(C(=O)Nc2ccc3nc(N)n(CC)c3c2)cc1 [Compound 9d, N-(2-Amino-1-ethyl-1H-benzo[d]imidazol-6-yl)-4-pentylbenzamide hydrochloride]	20 to 40 µM	–
CCCCCc1ccc(C(=O)Nc2ccc3nc(N)n(C(C)C)c3c2)cc1 [Compound 9e, N-(2-Amino-1-isopropyl-1H-benzo[d]imidazol-6-yl)-4-pentylbenzamide hydrochloride]	20 to 40 µM	–
Nc1nc2cc(NC(=O)c3cc(Br)cc(Br)c3)ccc2n1CCCc1ccccc1 [Compound 10c, N-(2-Amino-1-(3-phenylpropyl)-1H-benzo[d]imidazol-5-yl)-3,5-dibromobenzamide hydrochloride]	< 7 µM	IC50 (read-out: IC50 (μM), inhibition of biofilm formation, S. typhimurium ATCC14028, 24 h at 30° C., crystal violet OD540, listed as 15c, hydrochloride): 5.58 ± 0.21 µM
CCCCCCCCCC(=O)Nc1ccc2c(c1)nc(N)n2CCCc1ccccc1 [Compound 10h, N-(2-Amino-1-(3-phenylpropyl)-1H-benzo[d]imidazol-5-y0decanamide hydrochloride]	–	IC50 [2]: 10 to 15 µM
CCCCCCCCCCC(=O)Nc1ccc2c(c1)nc(N)n2CCCc1ccccc1 [Compound 10i, N-(2-Amino-1-(3-phenylpropyI)-1H-benzo[d]imidazol-5-yhundecanamide hydrochloride]	–	IC50 [2]: 10 to 15 µM
CCCCOc1ccc(C(=O)Nc2ccc3c(c2)nc(N)n3CCCc2ccccc2)cc1 [Compound 10j, N-(2-Amino-1-(3-phenylpropyl)-1H-benzo[d]imidazol-5-yl)-4-butoxybenzamide hydrochloride]	15 to 20 µM	–
CCc1ccc(C(=O)Nc2ccc3c(c2)nc(N)n3CCCc2ccccc2)cc1 [Compound 10o, N-(2-Amino-1-(3-phenylpropyl)-1H-benzo[d]imidazol-5-yl)-4-ethylbenzamide hydrochloride]	20 to 40 µM	–
CCCCCCC(=O)Nc1ccc2c(c1)nc(N)n2CCCc1ccccc1 [Compound 10p, N-(2-Amino-1-(3-phenylpropyl)-1H-benzo[d]imidazol-5-yl)heptanamide hydrochloride]	20 to 40 µM	–
CCCCCCCC(=O)Nc1ccc2c(c1)nc(N)n2CCCc1ccccc1 [Compound 10q, N-(2-Amino-1-(3-phenylpropyl)-1H-benzo[d]imidazol-5-yl)octanamide hydrochloride]	> 40 µM	–
CCCCCCCCc1ccc(C(=O)Nc2ccc3c(c2)nc(N)n3CCCc2ccccc2)cc1 [Compound 10r, N-(2-Amino-1-(3-phenylpropyl)-1H-benzo[d]imidazol-5-yl)-4-octylbenzamide hydrochloride]	> 40 µM	IC50 [3]: > 50 µM
CCCCCCCCCCCC(=O)Nc1ccc2c(c1)nc(N)n2CCCc1ccccc1 [Compound 10s, N-(2-Amino-1-(3-phenylpropyl)-1H-benzo[d]imidazol-5-yhdodecanamide hydrochloride]	–	IC50 [3]: > 50 µM

The next lines start with results.

IC50 [1]	SMILES	further results
13.1 ± 0.6 µM	CCCCCc1ccc(C(=O)Nc2ccc3c(c2)nc(N)n3CCc2ccccc2)cc1 [Compound 1, N-(2-Amino-1-phenethyl-1H-benzo[d]imidazol-5-yl)-4-pentylbenzamide hydrochloride]	–
6.66 ± 0.32 µM	CCCCCCCCn1c(N)nc2cc(NC(=O)c3ccc(CCCCC)cc3)ccc21 [Compound 5a, N-(2-Amino-1-octyl-1H-benzo[d]imidazol-5-yl)-4-pentylbenzamide hydrochloride]	–
10.8 ± 0.56 µM	CCCCCCn1c(N)nc2cc(NC(=O)c3ccc(CCCCC)cc3)ccc21 [Compound 5c, N-(2-Amino-1-hexyl-1H-benzo[d]imidazol-5-yl)-4-pentylbenzamide hydrochloride]	–
10 to 15 µM	CCCCCc1ccc(C(=O)Nc2ccc3c(c2)nc(N)n3CCc2c[nH]c3ccccc23)cc1 [Compound 5e, N-(1-(2-(1H-Indol-3-yl)ethyl)-2-amino-1H-benzo[d]imidazol-5-yl)-4-pentylbenzamide hydrochloride]	–
15 to 20 µM	CCCCCc1ccc(C(=O)Nc2ccc3c(c2)nc(N)n3CCCC)cc1 [Compound 5f, N-(2-Amino-1-butyl-1H-benzo[d]imidazol-5-yl)-4-pentylbenzamide hydrochloride]	–
15 to 20 µM	CCCCCc1ccc(C(=O)Nc2ccc3c(c2)nc(N)n3C2CCCC2)cc1 [Compound 5g, N-(2-Amino-1-cyclopentyl-1H-benzo[d]imidazol-5-yl)-4-pentylbenzamide hydrochloride]	–
15 to 20 µM	CCCCCc1ccc(C(=O)Nc2ccc3c(c2)nc(N)n3C2CCCCC2)cc1 [Compound 5h, N-(2-Amino-1-cyclohexyl-1H-benzo[d]imidazol-5-yl)-4-pentylbenzamide hydrochloride]	–
20 to 40 µM	CCCCCc1ccc(C(=O)Nc2ccc3c(c2)nc(N)n3CCc2cnc[nH]2)cc1 [Compound 5j, N-(1-(2-(1H-Imidazol-5-yl)ethyl)-2-amino-1H-benzo[d]imidazol-5-yl)-4-pentylbenzamide dihydrochloride]	–
20 to 40 µM	CCCCCc1ccc(C(=O)Nc2ccc3c(c2)nc(N)n3C(C)C)cc1.Cl [Compound 5k, N-(2-Amino-1-isopropyl-1H-benzo[d]imidazol-5-yl)-4-pentylbenzamide hydrochloride]	antibiofilm activity (in words): reduced or completely abolished antibiofilm activity
20 to 40 µM	CCCCCc1ccc(C(=O)Nc2ccc3[nH]c(N)nc3c2)cc1 [Compound 5o, N-(2-Amino-1H-benzo[d]imidazol-5-yl)-4-pentylbenzamide hydrochloride]	–
10 to 15 µM	CCCCCc1ccc(C(=O)Nc2ccc3nc(N)n(CCCC)c3c2)cc1 [Compound 9a, N-(2-Amino-1-butyl-1H-benzo[d]imidazol-6-yl)-4-pentylbenzamide hydrochloride]	–
10 to 15 µM	CCCCCCn1c(N)nc2ccc(NC(=O)c3ccc(CCCCC)cc3)cc21 [Compound 9b, N-(2-Amino-1-hexyl-1H-benzo[d]imidazol-6-yl)-4-pentylbenzamide hydrochloride]	–
20 to 40 µM	CCCCCc1ccc(C(=O)Nc2ccc3nc(N)n(C)c3c2)cc1 [Compound 9c, N-(2-Amino-1-methyl-1H-benzo[d]imidazol-6-yl)-4-pentylbenzamide hydrochloride]	–
< 7 µM	Nc1nc2cc(NC(=O)c3ccc(Br)c(Br)c3)ccc2n1CCCc1ccccc1 [Compound 10b, N-(2-Amino-1-(3-phenylpropyl)-1H-benzo[d]imidazol-5-yl)-3,4-dibromobenzamide hydrochloride]	IC50 (read-out: IC50 (μM), inhibition of biofilm formation, S. typhimurium ATCC14028, 24 h at 30° C., crystal violet OD540, listed as 15b, hydrochloride): 5.38 ± 0.79 µM
10 to 15 µM	CCCCc1ccc(C(=O)Nc2ccc3c(c2)nc(N)n3CCCc2ccccc2)cc1 [Compound 10f, N-(2-Amino-1-(3-phenylpropyl)-1H-benzo[d]imidazol-5-yl)-4-butylbenzamide hydrochloride]	–
10 to 15 µM	CCCOc1ccc(C(=O)Nc2ccc3c(c2)nc(N)n3CCCc2ccccc2)cc1 [Compound 10g, N-(2-Amino-1-(3-phenylpropyl)-1H-benzo[d]imidazol-5-yl)-4-propoxybenzamide hydrochloride]	–
15 to 20 µM	CCCc1ccc(C(=O)Nc2ccc3c(c2)nc(N)n3CCCc2ccccc2)cc1 [Compound 10k, N-(2-Amino-1-(3-phenylpropyl)-1H-benzo[d]imidazol-5-yl)-4-propylbenzamide hydrochloride]	–
15 to 20 µM	CCCCCCc1ccc(C(=O)Nc2ccc3c(c2)nc(N)n3CCCc2ccccc2)cc1 [Compound 10l, N-(2-Amino-1-(3-phenylpropyl)-1H-benzo[d]imidazol-5-yl)-4-hexylbenzamide hydrochloride]	–
15 to 20 µM	CCCCCCCc1ccc(C(=O)Nc2ccc3c(c2)nc(N)n3CCCc2ccccc2)cc1 [Compound 10m, N-(2-Amino-1-(3-phenylpropyl)-1H-benzo[d]imidazol-5-yl)-4-heptylbenzamide hydrochloride]	–
15 to 20 µM	CCCCCCCCC(=O)Nc1ccc2c(c1)nc(N)n2CCCc1ccccc1 [Compound 10n, N-(2-Amino-1-(3-phenylpropyl)-1H-benzo[d]imidazol-5-yl)nonanamide hydrochloride]	–
